Marks after values point to notes of the source that are not given here.
Tested on: A549 subcutaneous xenograft
Assay: Efficacy study in subcutaneous A549 xenograft model (tumor volume, tumor weight, TGI)
Assay type: in vivo, BALB/c nude mice
Conditions: for Volume-based TGI(%) / Weight-based TGI(%): Day 21, P < 0.001
Experimental: The efficacy of compound 82c was studied in vivo for the treatment of A549 subcutaneous xenograft model in BALB/c nude mice. Seventy-five BALB/c nude female mice were injected cell A549 at 1×10^7 per mouse.
Fifty mice were selected and assigned into five groups using randomized block design based upon their tumor volumes and 10 mice per group. The 5 groups were treated p.o. with vehicle (0.5% NaCMC 0.1% Tween pH4), compound 82c 5 mg/kg BIDx21, 12.5 mg/kg BIDx10/QDx11, 25 mg/kg BIDx7/QDx14 and 50 mg/kg QDx10/3 days off/30 mg/kg QDx8.
All mice from 12.5 mg/kg BID were adjusted from BID to QD from treatment Day 11 until to the end of the study. #36˜#40 mice from group 25 mg/kg BID were compound administration holiday due to mice body weight loss. All mice from group 25 mg/kg BID were adjusted from BID to QD from treatment Day 8. All mice from group 50 mg/kg QD were compound administration holiday from Day 11 to Day 13 due to mice body weight loss and this group was adjusted from 50 mg/kg to 30 mg/kg until the end of the study.
Tumor Inoculation. Each mouse was inoculated subcutaneously at the right flank with A549 tumor cells (1×10^7 cells/mouse) in 0.2 mL of base media (F12K) for tumor development. The treatments were started when the tumor size reached 126.94 mm^3 for the tumor efficacy study (Day 14 post inoculation). Fifty tumor-bearing mice were block randomized into 5 groups with 10 mice in each.
Tumor Measurements and Endpoints. The major endpoint was tumor growth delay or cure. Tumor size was measured twice weekly in two dimensions using a caliper, and the volume was expressed in mm^3 using the formula: V=0.5 a×b^2 where a and b were the long and short diameters of the tumor, respectively. The tumor size was then used for calculations of T/C (%) values. T/C (%) was calculated according to the following equation: T/C (%)=TRTV/CRTV×[…] TRTV=TVtreatment-Dn/TVtreatment-D1, CRTV=TVcontrol-Dn/TVcontrol-D1, T/C (%)<42%, it was considered to be effective. The tumor size was then used for calculations of TGI (%) values. TGI (%) was calculated according to the following equation: TGI (%)=(1−(TVTreatment/Dx−TVTreatment/D1)/(TVControl/Dx−TVControl/D1))×100%, TGI[…]58 means this medicine is effective. The tumor weight was then used for calculations of TGI (%) values. TGI (%) was calculated according to the following equation: TGI (%)=(1−TWTreatment/TWControl)×100%
Statistical Analysis. Summary statistics, including mean and the standard error of the mean (SEM), were provided for the tumor volumes of each group at each time point. Statistical analyses of difference in tumor volumes among the groups were conducted on Day 21 after the last dose. Statistical analysis of difference in tumor volume and tumor weight among the groups was conducted. All data was analyzed using GraphPad Prism software. P<0.05 was considered to be statistically significant. A two-way ANOVA combined with Bonferroni post-test was performed to compare tumor volumes among vehicle and all treatment groups. A one-way ANOVA combined with Dunnett's Multiple Comparison Test to compare tumor weight among vehicle and all treatment groups.

[1] = 50 mg/kg QD×10, 3 days off, 30 mg/kg QD×8, p.o.

## N#Cc1cc(C(=O)Nc2cc(F)c(=O)n(CC(F)F)c2)sc1C(F)(F)F [Compound 82c, 4-cyano-N-[1-(2,2-difluoroethyl)-5-fluoro-6-oxopyridin-3-yl]-5-(trifluoromethyl)thiophene-2-carboxamide]
5 mg/kg BID×21, p.o.
  Tumor Volume (mm^3), Day 21: 737.75 ± 78.79 mm^3
  Tumor Weight (g), Day 21: 0.773 ± 0.052 g
  Volume-based TGI(%): 57.01* %
  Weight-based TGI(%): 47.23* %
12.5 mg/kg BID×10 QD×11, p.o.
  Tumor Volume (mm^3), Day 21: 579.14 ± 59.39 mm^3
  Tumor Weight (g), Day 21: 0.609 ± 0.063 g
  Volume-based TGI(%): 68.31* %
  Weight-based TGI(%): 58.44* %
25 mg/kg BID×7 QD×14, p.o.
  Tumor Volume (mm^3), Day 21: 469.53 ± 70.97 mm^3
  Tumor Weight (g), Day 21: 0.509 ± 0.077 g
  Volume-based TGI(%): 75.87* %
  Weight-based TGI(%): 65.26* %
[1]
  Tumor Volume (mm^3), Day 21: 461.87 ± 60.61 mm^3
  Tumor Weight (g), Day 21: 0.496 ± 0.058 g
  Volume-based TGI(%): 76.56* %
  Weight-based TGI(%): 66.17* %
